Laboratory results taken from US8282721B2, “Coloring composition, thermal transfer recording ink sheet, thermal transfer recording method, color toner, inkjet ink, color filter, and arylidene-pyrazolone dye” (FUJIFILM Corporation, priority 2008, dated 2012).

Tests used:
Format in all cases: physicochemical
[1] = Dye solubility in methyl ethyl ketone/toluene; set-up: key: A (easily soluble); B (soluble); C (difficult to dissolve, but soluble); details: solvent methyl ethyl ketone/toluene (1/1, w/w), ranked in three
Description: The dye solubility of each compound in the solvent of methyl ethyl ketone/toluene (1/1, w/w) was ranked in three, A (easily soluble), B (soluble), C (difficult to dissolve, but soluble).

[2] = Light fastness of thermal transfer recorded image (Xe light exposure); details: Xe light (17000 lux) for 7 days; retention of status A reflection density 1.0; image from thermal transfer ink sheet
Description: (§1) The thermal transfer recording ink sheet produced in Example 201 and the image-receiving material constructed as above were combined in such a manner that the dye-donating layer could face the image-receiving layer, and this was printed using a thermal head applied to the back of the dye-donating material. The output power of the thermal head was 0.25 W/dot, pulse width was from 0.15 to 15 msec, the dot density was 6 dots/mm. In that manner, the magenta dye was imagewise fixed on the image-receiving layer of the image-receiving material, and as a result, a sharp image print with no transfer unevenness was obtained.
(§2) The thermal transfer recording ink sheets produced in Example 202 to 204 and produced in Comparative Example 201 to 203 were used in place of the thermal transfer recording ink sheet produced in Example 201, tested for image recording.
Next, the thermal transfer image-receiving material that had been recorded by the thermal transfer were exposed to a Xe light (17000 lux) for 7 days, and tested for the light stability (light fastness) of the recorded images. After the exposure, the status A reflection density of the part of each sample having an original status A reflection density of 1.0 before the exposure was measured, and the retention (by percentage) to the reflection density of 1.0 after exposure to that before exposure indicates the image stability. With the retention percentage, the samples were ranked in three, A (from 90% to less than 100%), B (from 80% to less than 90%), C (less than 80%).

[3] = Wet heat fastness of thermal transfer recorded image (80° C., 70% RH, dark); details: 80° C. and 70% RH in a dark place for 7 days; retention of Status A reflection density 1.0; image from thermal transfer ink sheet
Description: as §1, §2
Further, the thermal transfer image-receiving material that had been recorded by the thermal transfer in the same manner as above were stored under the condition of 80° C. and 70% RH in a dark place for 7 days, and checked for the wet heat stability (wet heat fastness) of the image. After exposure to light, the Status A reflection density of the area having an initial Status A reflection density of 1.0 was measured; and the density retentiveness (percentage) relative to the original reflection density 1.0 before exposure to light was computed. Based on the computed data, the samples were evaluated with regard to the stability into three ranks, A (from 90% to less than 100%), B (from 80% to less than 90%), and C (less than 80%).

[4] = Evaluation of maximum absorption wavelength (absorption spectrometry in ethyl acetate solution); details: concentration 1×10^−6 mol/L, optical path length 10 mm
Procedure: <Evaluation of Maximum Absorption Wavelength>
The thus-obtained arylidene-pyrazolone dyes of Examples 101 to 105 were analyzed absorption spectrometry in an ethyl acetate solution (concentration: 1×10^−6 mol/L, optical path length: 10 mm).

| Compound | Solubility [1] | Light Fastness [2] | Wet Heat Fastness [3] | Maximum Absorption Wavelength [4] |
| --- | --- | --- | --- | --- |
| CCOC1=NN(C)C(=O)/C1=C\c1ccc(N(CC)CC)cc1 [Comparative Dye 3] | A | B (B (from 80% to less than 90%)) | C (C (less than 80%)) | – |
| C.I.Disperse Yellow 201 [Comparative Dye 1] | A | A (A (from 90% to less than 100%)) | C (C (less than 80%)) | – |
| CCOC1=NN(c2ccccc2)C(=O)/C1=C\c1ccc(N(CC)CC)cc1 [Comparative Dye 2] | B | A (A (from 90% to less than 100%)) | C (C (less than 80%)) | – |

Continued, values first:

| Solubility [1] | Light Fastness [2] | Wet Heat Fastness [3] | Maximum Absorption Wavelength [4] | Compound |
| --- | --- | --- | --- | --- |
| A | A (A (from 90% to less than 100%)) | A (A (from 90% to less than 100%)) | 468 nm | CCOC1=NN(S(C)(=O)=O)C(=O)/C1=C\c1ccc(N(CC)CC)cc1 [Compound Y-1] |
| A | A (A (from 90% to less than 100%)) | A (A (from 90% to less than 100%)) | 462 nm | CCOC1=NN(S(=O)(=O)N(C)C)C(=O)/C1=C\c1ccc(N(CC)CC)cc1 [Compound Y-8] |
